Experimental data from patent US20260365637A1, “DUAL EZH2-HSP90 INHIBITORS” (TAIPEI MEDICAL UNIVERSITY, priority 2023, published 2026).

What was measured:
GBM cells = conditions: literature, cited from earlier work
brafv600e mutant GBM = conditions: literature; cited from earlier work
HSP90a = HSP90a (Homo sapiens, UniProt P07900); test: In vitro HSP90 inhibition assay (Reaction Biology Corporation); type: biochemical
Protocol: The HSP90 inhibitory activity of the synthesized adduct was assessed by Reaction Biology Corporation, Malvern, PA (http://www.reactionbiology.com).
An in-vitro experiment was performed to assess the inhibitory effect of the synthesized adducts on the heat shock protein 90 (HSP90).

EZH2 (Core Histone) = EZH2 (Core Histone) (Homo sapiens, UniProt Q15910); test: EZH2 inhibition assay (Reaction Biology Corporation); type: biochemical
Sequence of EZH2 (Core Histone) (Q15910 whole entry): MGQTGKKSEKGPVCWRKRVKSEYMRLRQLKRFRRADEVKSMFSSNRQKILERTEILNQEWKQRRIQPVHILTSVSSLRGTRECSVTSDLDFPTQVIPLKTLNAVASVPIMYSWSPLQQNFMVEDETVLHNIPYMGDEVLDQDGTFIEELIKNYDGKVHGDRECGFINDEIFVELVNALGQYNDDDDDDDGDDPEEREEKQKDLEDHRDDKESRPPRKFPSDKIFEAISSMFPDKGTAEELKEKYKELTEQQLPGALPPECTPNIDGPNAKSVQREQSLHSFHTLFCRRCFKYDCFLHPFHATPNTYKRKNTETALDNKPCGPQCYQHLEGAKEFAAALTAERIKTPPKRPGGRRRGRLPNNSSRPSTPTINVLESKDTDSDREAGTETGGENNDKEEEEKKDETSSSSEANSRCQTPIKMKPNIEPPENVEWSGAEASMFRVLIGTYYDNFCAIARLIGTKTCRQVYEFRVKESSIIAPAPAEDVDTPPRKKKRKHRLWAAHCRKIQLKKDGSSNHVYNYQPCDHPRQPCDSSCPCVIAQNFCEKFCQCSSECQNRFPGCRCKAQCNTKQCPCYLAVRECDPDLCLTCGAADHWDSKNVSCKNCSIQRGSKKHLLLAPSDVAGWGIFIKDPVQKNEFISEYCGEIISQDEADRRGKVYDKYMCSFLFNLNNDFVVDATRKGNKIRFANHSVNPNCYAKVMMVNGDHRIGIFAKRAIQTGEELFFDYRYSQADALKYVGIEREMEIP
Sequence of EZH2 (Core Histone) (O75530 whole entry partner): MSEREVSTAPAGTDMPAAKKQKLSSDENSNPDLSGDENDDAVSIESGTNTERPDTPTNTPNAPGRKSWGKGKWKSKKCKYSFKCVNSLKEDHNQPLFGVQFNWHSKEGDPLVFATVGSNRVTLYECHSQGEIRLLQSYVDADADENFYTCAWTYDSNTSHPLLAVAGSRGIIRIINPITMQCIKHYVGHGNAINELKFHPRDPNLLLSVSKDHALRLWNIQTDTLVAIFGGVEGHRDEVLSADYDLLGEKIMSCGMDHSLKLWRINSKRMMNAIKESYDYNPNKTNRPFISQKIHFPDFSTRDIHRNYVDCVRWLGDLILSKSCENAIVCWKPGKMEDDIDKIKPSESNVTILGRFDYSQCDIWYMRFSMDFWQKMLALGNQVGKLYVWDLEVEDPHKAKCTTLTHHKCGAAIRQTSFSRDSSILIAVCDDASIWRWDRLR
Sequence of EZH2 (Core Histone) (Q15022 whole entry partner): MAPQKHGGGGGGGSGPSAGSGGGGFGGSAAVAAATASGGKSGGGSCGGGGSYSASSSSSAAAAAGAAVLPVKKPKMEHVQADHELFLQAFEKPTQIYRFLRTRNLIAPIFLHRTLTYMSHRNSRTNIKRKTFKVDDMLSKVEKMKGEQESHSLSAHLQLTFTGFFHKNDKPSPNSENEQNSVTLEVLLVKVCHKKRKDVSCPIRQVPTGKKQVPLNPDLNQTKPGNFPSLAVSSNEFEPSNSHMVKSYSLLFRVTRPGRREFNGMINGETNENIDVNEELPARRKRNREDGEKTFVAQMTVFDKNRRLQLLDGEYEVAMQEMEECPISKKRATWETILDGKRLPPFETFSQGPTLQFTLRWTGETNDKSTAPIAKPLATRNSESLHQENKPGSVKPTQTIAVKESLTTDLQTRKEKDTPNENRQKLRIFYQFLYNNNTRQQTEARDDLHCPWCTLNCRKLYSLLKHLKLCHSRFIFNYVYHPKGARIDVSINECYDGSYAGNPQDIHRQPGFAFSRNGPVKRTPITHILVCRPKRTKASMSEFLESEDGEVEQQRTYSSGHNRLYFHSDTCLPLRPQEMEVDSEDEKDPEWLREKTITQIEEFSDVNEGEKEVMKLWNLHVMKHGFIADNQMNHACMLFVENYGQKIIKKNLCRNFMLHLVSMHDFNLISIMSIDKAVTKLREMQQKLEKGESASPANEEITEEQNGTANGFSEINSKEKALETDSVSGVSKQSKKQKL
Sequence of EZH2 (Core Histone) (Q09028 whole entry partner): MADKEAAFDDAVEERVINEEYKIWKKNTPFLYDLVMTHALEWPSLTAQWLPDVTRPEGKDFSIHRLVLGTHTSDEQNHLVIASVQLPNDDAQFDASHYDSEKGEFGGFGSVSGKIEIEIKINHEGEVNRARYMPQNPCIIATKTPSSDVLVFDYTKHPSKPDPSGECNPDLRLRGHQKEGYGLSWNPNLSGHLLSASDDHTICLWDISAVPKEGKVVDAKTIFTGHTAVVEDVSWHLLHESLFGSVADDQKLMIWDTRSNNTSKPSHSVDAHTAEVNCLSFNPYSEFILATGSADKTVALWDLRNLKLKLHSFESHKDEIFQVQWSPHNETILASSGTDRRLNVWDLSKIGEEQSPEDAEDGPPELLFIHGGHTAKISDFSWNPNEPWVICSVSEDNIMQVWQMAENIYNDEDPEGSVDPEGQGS
Sequence of EZH2 (Core Histone) (Q6ZN18 whole entry partner): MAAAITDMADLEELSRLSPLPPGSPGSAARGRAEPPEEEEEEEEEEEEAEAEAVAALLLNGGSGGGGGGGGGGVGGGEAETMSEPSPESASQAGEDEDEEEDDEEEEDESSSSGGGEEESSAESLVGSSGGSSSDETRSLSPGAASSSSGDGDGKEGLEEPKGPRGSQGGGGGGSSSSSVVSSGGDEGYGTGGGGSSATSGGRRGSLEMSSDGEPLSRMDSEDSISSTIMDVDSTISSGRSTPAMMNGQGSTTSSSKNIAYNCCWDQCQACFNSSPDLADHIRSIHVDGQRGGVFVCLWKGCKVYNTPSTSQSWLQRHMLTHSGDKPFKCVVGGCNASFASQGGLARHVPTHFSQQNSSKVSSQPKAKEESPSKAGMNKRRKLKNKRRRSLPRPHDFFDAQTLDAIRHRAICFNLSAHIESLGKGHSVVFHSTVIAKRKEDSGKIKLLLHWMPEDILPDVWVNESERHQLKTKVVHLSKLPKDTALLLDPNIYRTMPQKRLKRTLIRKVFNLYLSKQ
Protocol: The EZH2 inhibitory ability of the synthesized adduct was assessed by Reaction Biology Corporation, Malvern, PA (http://www.reactionbiology.com).

Pt3R cells = test: Cell viability / cytotoxicity of TMZ-resistant Pt3R cells (CCK8); type: cell-based, human; conditions: for IC50: read-out: Cell growth inhibitory effect IC50
GBM cell lines = test: Preliminary screening of cell growth inhibition in GBM cell lines; type: cell-based; conditions: for cytotoxicity / cell growth inhibition against GBM cell lines: preliminary screening
Source text: As such, Hsp90 is an ATP-dependent molecular chaperone that regulates protein conformation, stability, and degradation. Several HSP90 inhibitors have been evaluated for their anti-GBM efficacy at a preliminary level. […] Reduction in the mRNA and protein expression of EGFR, PDGFRA, CDK4, and NF1 in heterogeneous GBM cells was also evidenced in treatment with AUY922.

SMILES: CCNC(=O)c1noc(-c2cc(C(C)C)c(O)cc2O)c1-c1ccc(CN2CCOCC2)cc1 [AUY922]
- mRNA and protein expression of EGFR, PDGFRA, CDK4, and NF1 (GBM cells; heterogeneous GBM cells): Reduction
- anti-GBM effect in GBM cells (GBM cells): led to GBM cell death via apoptosis and autophagy

SMILES: COc1c(C)cnc(Cn2cnc3c(Cl)nc(N)nc32)c1C [BIIB021]
- resistance to molecular targeted therapy (brafv600e mutant GBM): overcome resistance to molecular targeted therapy

SMILES: CCN(c1cc(-c2ccc(NC(=O)c3cc(C(C)C)c(O)cc3O)cc2)cc(C(=O)NCc2c(C)cc(C)[nH]c2=O)c1C)C1CCOCC1 [Compound 1, 4′-(2,4-dihydroxy-5-isopropylbenzamido)-N-((4,6-dimethyl-2-oxo-1,2-dihydropyridin-3-yl)methyl)-5-(ethyl(tetrahydro-2H-pyran-4-yl)amino)-4-methyl-[1,1′-biphenyl]-3-carboxamide]
- HSP90 inhibitory potential in words (HSP90a): devoid of HSP90 inhibitory potential
- IC50 (EZH2 (Core Histone)): 6.14 nM
- cell growth / viability inhibitory effect in words (Pt3R cells): unable to exert cell growth inhibitory effects
- IC50 (Pt3R cells): > 79800 nM

SMILES: CCN(c1cc(-c2cccc(NC(=O)c3cc(C(C)C)c(O)cc3O)c2)cc(C(=O)NCc2c(C)cc(C)[nH]c2=O)c1C)C1CCOCC1 [Compound 2, 3′-(2,4-dihydroxy-5-isopropylbenzamido)-N-((4,6-dimethyl-2-oxo-1,2-dihydropyridin-3-yl)methyl)-5-(ethyl(tetrahydro-2H-pyran-4-yl)amino)-4-methyl-[1,1′-biphenyl]-3-carboxamide]
- HSP90 inhibitory potential in words (HSP90a): devoid of HSP90 inhibitory potential
- IC50 (EZH2 (Core Histone)): 2.06 nM
- potency in inhibiting EZH2 relative to compound 1 (EZH2 (Core Histone); compound 2 (3′) vs counterpart 1 (4′)): 3 fold
- cell growth / viability inhibitory effect in words (Pt3R cells): unable to exert cell growth inhibitory effects
- IC50 (Pt3R cells): > 79800 nM

SMILES: CCN(c1cc(-c2ccc(N(C)C(=O)c3cc(C(C)C)c(O)cc3O)cc2)cc(C(=O)NCc2c(C)cc(C)[nH]c2=O)c1C)C1CCOCC1 [Compound 3, 4′-(2,4-dihydroxy-5-isopropyl-N-methylbenzamido)-N-((4,6-dimethyl-2-oxo-1,2-dihydropyridin-3-yl)methyl)-5-(ethyl(tetrahydro-2H-pyran-4-yl)amino)-4-methyl-[1,1′-biphenyl]-3-carboxamide]
- HSP90 inhibitory potential in words (HSP90a): conferred HSP90 inhibitory potential
- IC50 (HSP90a): 343 nM
- IC50 (EZH2 (Core Histone)): 7.21 nM
- cell growth / viability inhibitory effect in words (Pt3R cells): the only ones to exert cell viability inhibitory potential
- IC50 (Pt3R cells): 27400 nM

SMILES: CCN(C(=O)c1cc(C(C)C)c(O)cc1O)c1ccc(-c2cc(C(=O)NCc3c(C)cc(C)[nH]c3=O)c(C)c(N(CC)C3CCOCC3)c2)cc1 [Compound 4, N-((4,6-dimethyl-2-oxo-1,2-dihydropyridin-3-yl)methyl)-5-(ethyl(tetrahydro-2H-pyran-4-yl)amino)-4′-(N-ethyl-2,4-dihydroxy-5-isopropylbenzamido)-4-methyl-[1,1′-biphenyl]-3-carboxamide]
- HSP90 inhibitory potential in words (HSP90a): conferred HSP90 inhibitory potential
- IC50 (HSP90a): 823 nM
- IC50 (EZH2 (Core Histone)): 7.35 nM

SMILES: CCCN(C(=O)c1cc(C(C)C)c(O)cc1O)c1ccc(-c2cc(C(=O)NCc3c(C)cc(C)[nH]c3=O)c(C)c(N(CC)C3CCOCC3)c2)cc1 [Compound 5, 4′-(2,4-dihydroxy-5-isopropyl-N-propylbenzamido)-N-((4,6-dimethyl-2-oxo-1,2-dihydropyridin-3-yl)methyl)-5-(ethyl(tetrahydro-2H-pyran-4-yl)amino)-4-methyl-[1,1′-biphenyl]-3-carboxamide]
- HSP90 inhibitory potential in words (HSP90a): could not replicate the activity-conferring trends
- IC50 (EZH2 (Core Histone)): 21.8 nM
- IC50 (Pt3R cells): > 79800 nM

SMILES: CCN(c1cc(-c2ccc(N(Cc3ccccc3)C(=O)c3cc(C(C)C)c(O)cc3O)cc2)cc(C(=O)NCc2c(C)cc(C)[nH]c2=O)c1C)C1CCOCC1 [Compound 6, 4′-(N-benzyl-2,4-dihydroxy-5-isopropylbenzamido)-N-((4,6-dimethyl-2-oxo-1,2-dihydropyridin-3-yl)methyl)-5-(ethyl(tetrahydro-2H-pyran-4-yl)amino)-4-methyl-[1,1′-biphenyl]-3-carboxamide]
- HSP90 inhibitory potential in words (HSP90a): could not replicate the activity-conferring trends
- IC50 (EZH2 (Core Histone)): 11.7 nM
- IC50 (Pt3R cells): > 79800 nM

SMILES: CCN(C(=O)c1cc(C(C)C)c(O)cc1O)c1cccc(-c2cc(C(=O)NCc3c(C)cc(C)[nH]c3=O)c(C)c(N(CC)C3CCOCC3)c2)c1 [Compound 8, N-((4,6-dimethyl-2-oxo-1,2-dihydropyridin-3-yl)methyl)-5-(ethyl(tetrahydro-2H-pyran-4-yl)amino)-3′-(N-ethyl-2,4-dihydroxy-5-isopropylbenzamido)-4-methyl-[1,1′-biphenyl]-3-carboxamide]
- HSP90 inhibitory potential in words (HSP90a): conferred HSP90 inhibitory potential
- IC50 (HSP90a): 63.6 nM
- IC50 (EZH2 (Core Histone)): 36.6 nM
- cell growth / viability inhibitory effect in words (Pt3R cells): the only ones to exert cell viability inhibitory potential
- IC50 (Pt3R cells): 10800 nM

SMILES: CCCN(C(=O)c1cc(C(C)C)c(O)cc1O)c1cccc(-c2cc(C(=O)NCc3c(C)cc(C)[nH]c3=O)c(C)c(N(CC)C3CCOCC3)c2)c1 [Compound 9, 3′-(2,4-dihydroxy-5-isopropyl-N-propylbenzamido)-N-((4,6-dimethyl-2-oxo-1,2-dihydropyridin-3-yl)methyl)-5-(ethyl(tetrahydro-2H-pyran-4-yl)amino)-4-methyl-[1,1′-biphenyl]-3-carboxamide]
- HSP90 inhibitory potential in words (HSP90a): could not replicate the activity-conferring trends
- IC50 (HSP90a): 9330 nM
- IC50 (EZH2 (Core Histone)): 40.1 nM
- cell growth / viability inhibitory effect in words (Pt3R cells): unable to exert cell growth inhibitory effects
- IC50 (Pt3R cells): > 79800 nM

SMILES: CCN(c1cc(-c2cccc(N(Cc3ccccc3)C(=O)c3cc(C(C)C)c(O)cc3O)c2)cc(C(=O)NCc2c(C)cc(C)[nH]c2=O)c1C)C1CCOCC1 [Compound 10, 3′-(N-benzyl-2,4-dihydroxy-5-isopropylbenzamido)-N-((4,6-dimethyl-2-oxo-1,2-dihydropyridin-3-yl)methyl)-5-(ethyl(tetrahydro-2H-pyran-4-yl)amino)-4-methyl-[1,1′-biphenyl]-3-carboxamide]
- HSP90 inhibitory potential in words (HSP90a): could not replicate the activity-conferring trends
- IC50 (HSP90a): 2840 nM
- IC50 (EZH2 (Core Histone)): 641 nM
- cell growth / viability inhibitory effect in words (Pt3R cells): unable to exert cell growth inhibitory effects
- IC50 (Pt3R cells): > 79800 nM

SMILES: CC(C)c1cc(-c2n[nH]c(=O)n2-c2ccc3c(ccn3C)c2)c(O)cc1O [STA9090]
- cytotoxicity / cell growth inhibition against GBM cell lines (GBM cell lines): moderate cytotoxicity
- cell growth inhibitory effects relative to the cocktail (GBM cell lines; single agent vs combination with Tazemetostat): several fold less than that observed with the cocktail

SMILES: CCN(c1cc(-c2ccc(CN3CCOCC3)cc2)cc(C(=O)NCc2c(C)cc(C)[nH]c2=O)c1C)C1CCOCC1 [Tazemetostat]
- anti-GBM efficacy (GBM cell lines): did not exhibit anti-GBM efficacy
- cytotoxicity / cell growth inhibition against GBM cell lines (GBM cell lines; listed as tazemetosat): cytotoxicity-devoid trends
- cytotoxicity / cell growth inhibition against GBM cell lines (GBM cell lines; listed as tazemetostat (I)): could not exert cell growth inhibitory potential against the GBM cell lines
- cell growth / viability inhibitory effect in words (Pt3R cells): unable to exert cell growth inhibitory effects

SMILES: O=C1C=C(Nc2ccc3cnccc3c2)c2ccccc2C1=O [YZ129]
- anti-GBM effect in GBM cells (GBM cells): promoted apoptosis and exerted GBM cell cycle arrest at the G2/M phase, inhibiting tumour cell proliferation and migration
